Experimental data as given in ChEMBL document CHEMBL3045802, “Synthesis and in vitro antitumor activity of new quinoline, pyrimido[4,5-b]quinoline, [1,2,3]triazino[4,5-b]quinoline, and [1,2,4]triazolo[2,3:3,4]pyrimido[6,5-b]quinoline analogs” (2013).

What was measured:
Assay type in all cases: functional
[1] = system: K562; assay: Cytotoxicity against Homo sapiens (human) K562 cells assessed as growth inhibition at 10 uM after 48 hr by coulter counter analysis; settings: K562, 48 h, read-out: GI
[2] = system: SN12C; assay: Cytotoxicity against Homo sapiens (human) SN12C cells assessed as growth inhibition at 10 uM after 48 hr by coulter counter analysis; settings: read-out: GI
[3] = system: UACC-257; assay: Cytotoxicity against Homo sapiens (human) UACC257 cells assessed as growth inhibition at 10 uM after 48 hr by coulter counter analysis; settings: UACC-257, 48 h, read-out: GI
[4] = system: SF-295; assay: Cytotoxicity against Homo sapiens (human) SF295 cells assessed as growth inhibition at 10 uM after 48 hr by coulter counter analysis; settings: SF-295, 48 h, read-out: GI
[5] = system: LOX IMVI; assay: Cytotoxicity against Homo sapiens (human) LOXIMVI cells assessed as growth inhibition at 10 uM after 48 hr by coulter counter analysis; settings: read-out: GI
[6] = system: CCRF-CEM; assay: Cytotoxicity against Homo sapiens (human) CCRF-CEM cells assessed as growth inhibition at 10 uM after 48 hr by coulter counter analysis; settings: read-out: GI
[7] = system: NCI-H226; assay: Cytotoxicity against Homo sapiens (human) NCI-H226 cells assessed as growth inhibition at 10 uM after 48 hr by coulter counter analysis; settings: NCI-H226, 48 h, read-out: GI
[8] = system: RXF 393; assay: Cytotoxicity against Homo sapiens (human) RXF393 cells assessed as growth inhibition at 10 uM after 48 hr by coulter counter analysis; settings: RXF 393, 48 h, read-out: GI
[9] = system: CAKI-1; assay: Cytotoxicity against Homo sapiens (human) Caki1 cells assessed as growth inhibition at 10 uM after 48 hr by coulter counter analysis; settings: CAKI-1, 48 h, read-out: GI
[10] = system: BT-549; assay: Cytotoxicity against Homo sapiens (human) BT549 cells assessed as growth inhibition at 10 uM after 48 hr by coulter counter analysis; settings: BT-549, 48 h, read-out: GI
[11] = system: MDA-MB-231; assay: Cytotoxicity against Homo sapiens (human) MDA-MB-231 cells assessed as growth inhibition at 10 uM after 48 hr by coulter counter analysis; settings: MDA-MB-231, 48 h, read-out: GI
[12] = system: A498; assay: Cytotoxicity against Homo sapiens (human) A498 cells assessed as growth inhibition at 10 uM after 48 hr by coulter counter analysis; settings: A498, 48 h, read-out: GI
[13] = system: SK-OV-3; assay: Cytotoxicity against Homo sapiens (human) SKOV3 cells assessed as growth inhibition at 10 uM after 48 hr by coulter counter analysis; settings: SK-OV-3, 48 h, read-out: GI
[14] = system: EKVX; assay: Cytotoxicity against Homo sapiens (human) EKVX cells assessed as growth inhibition at 10 uM after 48 hr by coulter counter analysis; settings: read-out: GI
[15] = system: OVCAR-4; assay: Cytotoxicity against Homo sapiens (human) OVCAR4 cells assessed as growth inhibition at 10 uM after 48 hr by coulter counter analysis; settings: OVCAR-4, 48 h, read-out: GI
[16] = system: OVCAR-5; assay: Cytotoxicity against Homo sapiens (human) OVCAR5 cells assessed as growth inhibition at 10 uM after 48 hr by coulter counter analysis; settings: OVCAR-5, 48 h, read-out: GI
[17] = system: MDA-MB-468; assay: Cytotoxicity against Homo sapiens (human) MDA-MB-468 cells assessed as growth inhibition at 10 uM after 48 hr by coulter counter analysis; settings: MDA-MB-468, 48 h, read-out: GI
[18] = system: HCT-15; assay: Cytotoxicity against Homo sapiens (human) HCT15 cells assessed as growth inhibition at 10 uM after 48 hr by coulter counter analysis; settings: HCT-15, 48 h, read-out: GI
[19] = system: SK-MEL-2; assay: Cytotoxicity against Homo sapiens (human) SK-MEL-2 cells assessed as growth inhibition at 10 uM after 48 hr by coulter counter analysis; settings: SK-MEL-2, 48 h, read-out: GI
[20] = system: OVCAR-8; assay: Cytotoxicity against Homo sapiens (human) OVCAR8 cells assessed as growth inhibition at 10 uM after 48 hr by coulter counter analysis; settings: OVCAR-8, 48 h, read-out: GI
[21] = system: Hs-578T; assay: Cytotoxicity against Homo sapiens (human) Hs578T cells assessed as growth inhibition at 10 uM after 48 hr by coulter counter analysis; settings: read-out: GI
[22] = system: HL-60(TB); assay: Cytotoxicity against Homo sapiens (human) HL-60(TB) cells assessed as growth inhibition at 10 uM after 48 hr by coulter counter analysis; settings: HL-60, 48 h, read-out: GI
[23] = system: SF-268; assay: Cytotoxicity against Homo sapiens (human) SF268 cells assessed as growth inhibition at 10 uM after 48 hr by coulter counter analysis; settings: SF-268, 48 h, read-out: GI
[24] = system: PC-3; assay: Cytotoxicity against Homo sapiens (human) PC3 cells assessed as growth inhibition at 10 uM after 48 hr by coulter counter analysis; settings: PC-3, 48 h, read-out: GI
[25] = system: SK-MEL-5; assay: Cytotoxicity against Homo sapiens (human) SK-MEL-5 cells assessed as growth inhibition at 10 uM after 48 hr by coulter counter analysis; settings: SK-MEL-5, 48 h, read-out: GI
[26] = system: HT-29; assay: Cytotoxicity against Homo sapiens (human) HT-29 cells assessed as growth inhibition at 10 uM after 48 hr by coulter counter analysis; settings: HT-29, 48 h, read-out: GI
[27] = system: HCT-116; assay: Cytotoxicity against Homo sapiens (human) HCT116 cells assessed as growth inhibition at 10 uM after 48 hr by coulter counter analysis; settings: HCT-116, 48 h, read-out: GI
[28] = system: Malme-3M; assay: Cytotoxicity against Homo sapiens (human) MALME-3M cells assessed as growth inhibition at 10 uM after 48 hr by coulter counter analysis; settings: read-out: GI
[29] = system: HCC 2998; assay: Cytotoxicity against Homo sapiens (human) HCC2998 cells assessed as growth inhibition at 10 uM after 48 hr by coulter counter analysis; settings: HCC 2998, 48 h, read-out: GI
[30] = Cytotoxicity against Homo sapiens (human) NCI-ADR-RES cells assessed as growth inhibition at 10 uM after 48 hr by coulter counter analysis; settings: read-out: GI
[31] = system: HOP-92; assay: Cytotoxicity against Homo sapiens (human) HOP92 cells assessed as growth inhibition at 10 uM after 48 hr by coulter counter analysis; settings: HOP-92, 48 h, read-out: GI
[32] = system: SF-539; assay: Cytotoxicity against Homo sapiens (human) SF539 cells assessed as growth inhibition at 10 uM after 48 hr by coulter counter analysis; settings: SF-539, 48 h, read-out: GI
[33] = system: COLO 205; assay: Cytotoxicity against Homo sapiens (human) COLO205 cells assessed as growth inhibition at 10 uM after 48 hr by coulter counter analysis; settings: COLO 205, 48 h, read-out: GI
[34] = system: ACHN; assay: Cytotoxicity against Homo sapiens (human) ACHN cells assessed as growth inhibition at 10 uM after 48 hr by coulter counter analysis; settings: read-out: GI

| Compound | inhibition of growth at 10 µM [1] [%] | inhibition of growth at 10 µM [2] [%] | inhibition of growth at 10 µM [3] [%] | inhibition of growth at 10 µM [4] [%] | inhibition of growth at 10 µM [5] [%] | inhibition of growth at 10 µM [6] [%] | inhibition of growth at 10 µM [7] [%] | inhibition of growth at 10 µM [8] [%] | inhibition of growth at 10 µM [9] [%] | inhibition of growth at 10 µM [10] [%] | inhibition of growth at 10 µM [11] [%] | inhibition of growth at 10 µM [12] [%] | inhibition of growth at 10 µM [13] [%] | inhibition of growth at 10 µM [14] [%] | inhibition of growth at 10 µM [15] [%] | inhibition of growth at 10 µM [16] [%] | inhibition of growth at 10 µM [17] [%] | inhibition of growth at 10 µM [18] [%] | inhibition of growth at 10 µM [19] [%] | inhibition of growth at 10 µM [20] [%] | further results |
| --- | --- | --- | --- | --- | --- | --- | --- | --- | --- | --- | --- | --- | --- | --- | --- | --- | --- | --- | --- | --- | --- |
| COc1ccc(-c2nc3c(c(=O)[nH]2)C(c2ccc(Cl)cc2)C2=C(CCCC2)N3)cc1OC (stereo not drawn) | < 10 | 12 | < 10 | < 10 | < 10 | < 10 | 11 | < 10 | < 10 | < 10 | 12.6 | < 10 | < 10 | < 10 | < 10 | < 10 | < 10 | < 10 | < 10 | < 10 | inhibition of growth at 10 µM [21]: < 10%; inhibition of growth at 10 µM [22]: < 10%; inhibition of growth at 10 µM [23]: < 10%; inhibition of growth at 10 µM [24]: 12.5%; inhibition of growth at 10 µM [25]: 13%; inhibition of growth at 10 µM [26]: < 10%; inhibition of growth at 10 µM [27]: < 10%; inhibition of growth at 10 µM [28]: < 10%; inhibition of growth at 10 µM [29]: < 10%; inhibition of growth at 10 µM [30]: < 10%; inhibition of growth at 10 µM [31]: < 10%; inhibition of growth at 10 µM [32]: < 10%; inhibition of growth at 10 µM [33]: < 10%; inhibition of growth at 10 µM [34]: < 10% |
| COc1ccc(C2C3=C(CCCC3)Nc3nc(-c4ccccc4)[nH]c(=O)c32)cc1OC (stereo not drawn) | < 10 | 10.8 | < 10 | < 10 | < 10 | < 10 | 15.9 | 14.4 | 23.4 | < 10 | < 10 | 13.2 | < 10 | < 10 | < 10 | 12.6 | 21.2 | < 10 | < 10 | < 10 | inhibition of growth at 10 µM [21]: < 10%; inhibition of growth at 10 µM [22]: < 10%; inhibition of growth at 10 µM [23]: < 10%; inhibition of growth at 10 µM [24]: 13.5%; inhibition of growth at 10 µM [25]: 10.9%; inhibition of growth at 10 µM [26]: < 10%; inhibition of growth at 10 µM [27]: < 10%; inhibition of growth at 10 µM [28]: < 10%; inhibition of growth at 10 µM [29]: < 10%; inhibition of growth at 10 µM [30]: < 10%; inhibition of growth at 10 µM [31]: 13.3%; inhibition of growth at 10 µM [32]: < 10%; inhibition of growth at 10 µM [33]: 15.9%; inhibition of growth at 10 µM [34]: 18% |
